Data as given in patent US10464978B2, “Peptides and combination of peptides for use in immunotherapy against ovarian cancer and other cancers” (immatics biotechnologies GmbH, priority 2015, dated 2019).

system: CD8+ T cells; test: In vitro T-cell priming with aAPCs loaded with peptide/MHC and anti-CD28, pMHC multimer readout (in vitro immunogenicity); type: cell-based, human; conditions: HLA-A*02, healthy donors
Experimental: In an aspect, the peptides are pre-screened for immunogenicity before being included in the warehouse. By way of example, and not limitation, the immunogenicity of the peptides included in the warehouse is determined by a method comprising in vitro T-cell priming through repeated stimulations of CD8+ T cells from healthy donors with artificial antigen presenting cells loaded with peptide/MHC complexes and anti-CD28 antibody.
In order to obtain information regarding the immunogenicity of the TUMAPs of the present invention, the inventors performed investigations using an in vitro T-cell priming assay based on repeated stimulations of CD8+ T cells with artificial antigen presenting cells (aAPCs) loaded with peptide/MHC complexes and anti-CD28 antibody.
In order to perform in vitro stimulations by artificial antigen presenting cells loaded with peptide-MHC complex (pMHC) and anti-CD28 antibody, the inventors first isolated CD8+ T cells from fresh HLA-A*02 leukapheresis products via positive selection using CD8 microbeads (Miltenyi Biotec, Bergisch-Gladbach, Germany) of healthy donors obtained from the University clinics Mannheim, Germany, after informed consent.
PBMCs and isolated CD8+ lymphocytes were incubated in T-cell medium (TCM) until use consisting of RPMI-Glutamax (Invitrogen, Karlsruhe, Germany) supplemented with 10% heat inactivated human AB serum (PAN-Biotech, Aidenbach, Germany), 100 U/ml Penicillin/100 μg/ml Streptomycin (Cambrex, Cologne, Germany), 1 mM sodium pyruvate (CC Pro, Oberdorla, Germany), 20 μg/ml Gentamycin (Cambrex). 2.5 ng/ml IL-7 (PromoCell, Heidelberg, Germany) and 10 U/ml IL-2 (Novartis Pharma, Nürnberg, Germany) were also added to the TCM at this step.
Generation of pMHC/anti-CD28 coated beads, T-cell stimulations and readout was performed in a highly defined in vitro system using four different pMHC molecules per stimulation condition and 8 different pMHC molecules per readout condition.
The purified co-stimulatory mouse IgG2a anti human CD28 Ab 9.3 (Jung et al., 1987) was chemically biotinylated using Sulfo-N-hydroxysuccinimidobiotin as recommended by the manufacturer (Perbio, Bonn, Germany). Beads used were 5.6 μm diameter streptavidin coated polystyrene particles (Bangs Laboratories, Illinois, USA).
pMHC used for positive and negative control stimulations were A*0201/MLA-001 (peptide […] (SEQ ID NO. 664) from modified Melan-A/MART-1) and A*0201/DDX5-001 ([…] from DDX5, SEQ ID NO. 665), respectively.
800.000 beads/200 μl were coated in 96-well plates in the presence of 4×12.5 ng different biotin-pMHC, washed and 600 ng biotin anti-CD28 were added subsequently in a volume of 200 μl. Stimulations were initiated in 96-well plates by co-incubating […] CD8+ T cells with 2×10^5 washed coated beads in 200 μl TCM supplemented with 5 ng/ml IL-12 (PromoCell) for 3 days at 37° C. Half of the medium was then exchanged by fresh TCM supplemented with 80 U/ml IL-2 and incubating was continued for 4 days at 37° C. This stimulation cycle was performed for a total of three times. For the pMHC multimer readout using 8 different pMHC molecules per condition, a two-dimensional combinatorial coding approach was used as previously described (Andersen et al., 2012) with minor modifications encompassing coupling to 5 different fluorochromes. Finally, multimeric analyses were performed by staining the cells with Live/dead near IR dye (Invitrogen, Karlsruhe, Germany), CD8-FITC antibody clone SK1 (BD, Heidelberg, Germany) and fluorescent pMHC multimers. For analysis, a BD LSRII SORP cytometer equipped with appropriate lasers and filters was used. Peptide specific cells were calculated as percentage of total CD8+ cells. Evaluation of multimeric analysis was done using the FlowJo software (Tree Star, Oregon, USA). In vitro priming of specific multimer+ CD8+ lymphocytes was detected by comparing to negative control stimulations. […]

Question: Which results are given for “659 (ILFPDIIARA; listed as Homo sapiens) [compound 659]”?
Answer: donors (percentage of positive donors): +++ (50%-69% = +++); wells (percentage of positive wells): + (<20% = +)

Question: With “283 (ALYIGDGYVIHLA; listed as Homo sapiens) [compound 283]” as the substance, how does the “donors (percentage of positive donors)” value read?
Answer: Its value is “+++ (50%-69% = +++)”.

Question: And the “wells (percentage of positive wells)” value?
Answer: The value was “+ (<20% = +)”.

Question: What does the source list for “662 (KIQEILTQV; listed as Homo sapiens) [compound 662]”?
Answer: donors (percentage of positive donors): +++ (50%-69% = +++); wells (percentage of positive wells): + (<20% = +)

Question: How did the “donors (percentage of positive donors)” value turn out when “652 (TLWYRAPEV; listed as Homo sapiens) [compound 652]” was run?
Answer: The value was “++++ (> = 70% = ++++)”.

Question: What about the “wells (percentage of positive wells)” value of the same substance?
Answer: Its value is “+++ (50%-69% = +++)”.

Question: What does the source list for “648 (LLWGNAIFL; listed as Homo sapiens) [compound 648]”?
Answer: donors (percentage of positive donors): +++ (50%-69% = +++); wells (percentage of positive wells): ++ (20%-49% = ++)

Question: Which results are given for “663 (KIQEMQHFL; listed as Homo sapiens) [compound 663]”?
Answer: donors (percentage of positive donors): +++ (50%-69% = +++); wells (percentage of positive wells): + (<20% = +)

target: HLA-A*02:01 (Homo sapiens, UniProt P04439, D140Y/D185E/D98H/E176V/E277Q/G131W/G231S/I119V/I121R/I166T/I218V/L300P/L318F/N151K/N90K/P208A/P217A/Q86G/Q94H/R138H/R169H/T345S); test: MHC binding assay: UV-ligand exchange with beta2m ELISA (peptide exchange yield); conditions: binding to HLA-A*02:01
Summary of the method: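 Peptide-MHC complexes formed by UV-ligand exchange, a UV-cleavable peptide being replaced by the candidate peptide. Exchange products diluted 100-fold, captured on streptavidin-coated plates for 1h at 37° C, then detected with 2 ug/ml HRP anti-β2m (1h, 37° C) and TMB, absorbance 450 nm; value is exchange yield.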

Question: Which “Peptide exchange (MHC class I binding score, peptide exchange yield)” value does the source give for “283 (ALYIGDGYVIHLA; listed as Homo sapiens) [compound 283]” here?
Answer: Its value is ““+++” (≥50 = +++)”.
